These results are taken from patent publication US8409552B2, “Anthranillic acid amides and derivatives thereof as cosmetic and pharmaceutical active compounds” (Symrise AG, priority 2002, dated 2013).

Assay [1] concerns mast cells. Conditions: Hachisuka et al. 1988; read-out: concentration for 50% inhibition of the substance P-induced histamine release; cited from earlier work.
Assay [2] has as its system Mast cells from the peritoneal tissue of rats. The assay can be described thus: Inhibition of substance P-induced release of histamine from mast cells. Type of assay: cell-based, rat. Conditions: Rattus norvegicus, Mast cell, 2 min; 50 ppm synthetic substance; substance P 10 μM, 37° C.; based on histamine content of cells stimulated with substance P. On the procedure: Stock solutions: avenanthramides 2 to 19 (structural formulae: see Table 1a) and dianthramides 20-29 (structural formulae: see Table 1b); concentration: 1% in ethanol; storage before use at 4° C.) Mast cells from the peritoneal tissue of rats were isolated by centrifuging on metrizamide and stimulated with substance P (10 μM). […] The synthetically prepared avenanthramides and dianthramides of the Formulae 2 to 29 (cf. […] Test system: The final test solutions were incubated for 2 minutes in the presence of substance P and of the reference substance (CaCl2) or of the particular sample to be tested (incubation temperature: 37° C.). Cells that had been incubated in the absence of substance P and reference or sample substance served as blank. The reaction solutions were first freed from cell constituents by centrifuging. The histamine present in the supernatant liquor was then converted to a derivative with OPT and the fluorescence of the solutions was determined photometrically (fluorometer Cytofluor 2350). […] The values for the various avenanthramides are given in Table 2 as % inhibition based on the histamine content of cells stimulated with substance P without the addition of inhibitors.

Assay [3] concerns mast cells. The note with it: cited from earlier work.
The next assay relates to rat mast cells. The note with it: oral application, dose of 200 mg/kg; cited from earlier work.
For assay [4], the system named is mast cells. The experiment in a line: Substance P-induced release of histamine from mast cells (Hachisuka et al.). The note with it: 10^−3 M converted with molecular weight 327. Type of assay: cell-based. An excerpt: As Komatsu et al report, tranilast inhibits the antigen-(DNP ascaris; monoclonal IgE antibody with 2,4-dinitrophenyl-specificity) induced release of histamine from mast cells in the concentration range of 10^−3 to 10^−5 M. It was possible to achieve 50% inhibition of the histamine release at a concentration of approximately 10^−4 M. On the other hand, the influence of other anthranilic acid amides on the inhibition of the release of histamine from mast cells was not described in the publication. Hachisuka et al. (Arch. Dermatol. Res. Vol. 280, p. 158-162; 1988) investigated the influence of various active compounds on the inhibition of the substance P-induced release of histamine from mast cells. Here the activity of disodium chromogylcate (sic), ketotifen and tranilast was compared. […] Other anthranilic acid amides were not investigated in more detail within the framework of this research work either.
The comparatively low activity of tranilast agrees with the research carried out by Hachisuka et al. (Arch Dermatol Res Vol. 280, p. 158-162; 1988). […] Apparently, the alkylation of the vicinal hydroxyl groups in the cinnamic acid part or dihydrocinnamic acid part is accompanied by a significant reduction in activity.

Each structure is given as a SMILES string. Values after ≈ are worked out from the molar mass of the structure shown. Read-outs that look alike come from different tables or passages of the source.

Consider `COc1ccc(/C=C/C(=O)Nc2ccccc2C(=O)O)cc1OC` [substance 15, N-(3,4-dimethoxy-cinnamoyl)anthranilic acid], for which the IC50 in the assay with mast cells [1] is approximately 1000 µM; with mast cells [3] (antigen-induced (DNP ascaris), read-out: concentration for 50% inhibition of the histamine release), approximately 100 µM; in the assay with mast cells [4] (Mast cell, read-out: concentration for 50% inhibition of the substance P-induced histamine release), 327 µg/mL (≈ 999 µM). In addition, the inhibition at 50 µg/mL in assay [2] worked out at 21%. In addition, in the assay on mast cells [3] (DNP ascaris, monoclonal IgE antibody with 2,4-dinitrophenyl-specificity), the “concentration range inhibiting antigen-induced release of histamine” value was 10^−3 to 10^−5 M. In the assay with rat mast cells, the “inhibition of antigen-induced destruction of rat mast cells” value is 46.1%. Also, the “concentration for 50% inhibition of the substance P-induced histamine release” value in the assay with mast cells [4] stood at 327 ppm.

As a reminder, the inhibition is how much of the control response was suppressed.
